Reference: PMC8302598, “Rapid discovery of self-assembling peptides with one-bead one-compound peptide library” (Nature Communications, 2021)

Assays:
[1] = Fluorescent-activation screening assay on OBOC beads (NBD); assay type: physicochemical; details: peptide N-terminally capped with NBD on TentaGel S beads, in water, fluorescence microscope
From the text: It is well known that Aβ16–20 peptide sequence KLVFF can self-assemble into nanofibers in water. We, therefore, chose it as a model peptide to test our screening strategy and used KAAGG as the non-assembling negative control. These control peptides, N-terminally capped with NBD were synthesized with standard Fmoc-chemistry, and TentaGel S resin beads as solid support but without any cleavable linker. After side-chain deprotection, the beads were thoroughly washed with DMF, which was replaced stepwise with water or methanol and then examined under a fluorescent microscope. […] This is expected as the hydrophobicity-sensitive fluorescence dye NBD would fluoresce brightly under hydrophobic condition, in this case, methanol. In water, we expect fluorescent signal emitted from non-sequestered NBD to diminish, unless it is buried inside a hydrophobic environment such as within peptide aggregates or β-sheets formed by KLVFF peptides.
(§1) Once the screening method has been validated with our model KLVFF peptide, a totally random pentapeptide library with 19[5] permutations (cysteine was omitted from the library) was constructed using our previously published methods (Supplementary Fig. 3)[23]. Again, TentaGel S resin (loading of 0.31 mmol/g) was used as the solid support. The pentapeptides in the library were N-terminally capped with NBD. […] The positive bead with an intense fluorescent signal (pointed with a solid arrow) was noted. The rest of the beads were considered negative or weak positive beads. From a total of approximately 100 000 beads screened, we selected a total of eight strongest fluorescent positive beads and four dark beads as negative beads. The peptides were then resynthesized in soluble form and purified by high-performance liquid chromatography (HPLC) for testing (Supplementary Figs. 4–12). The amino acid sequences of the eight self-assembling pentapeptides are FTISD, ITSVV, YFTEF, ISDNL, LDFPI, FAGFT, FGFDP, and FFVDF. Not unexpectedly, of the 40 amino acids in these eight pentapeptides, 50% are hydrophobic residues, predominated by Phe (11 Phe, 4 Ile, 3 Val, and 2 Leu). For the remaining 20 amino acids, six are acidic residues (5 Asp and 1 Glu) and seven are neutral and hydrophilic (4 Thr and 3 Ser). The rest are 2 Pro, 2 Gly, 1 Tyr, 1 Asn, and 1 Ala. All eight peptides have at least two hydrophobic residues. Six out of the eight peptides have one negatively charged residue (Asp or Glu). The remaining two peptides are neutral. […] For the Pro containing pentapeptides, LDFPI and FGFDP, the Pro residue, which promotes peptide turns, resides at the fourth and fifth positions, but not in the middle. Not unexpectedly, all the four randomly selected negative non-assembling peptides (RITTR, PLVKA, PFTTR, and QIMRW) have very different sequences, and contain at least one positive charged amino acid.
The OBOC pentapeptide libraries (19[5]) were built using Fmoc strategy SPPS (solid-phase peptide synthesis) (Supplementary Fig. 3). TentaGel S Resin (named N-beads with loading 0.31 mmol/g) was used as the solid phase support. The pentapeptide sequence of X1 X2 X3 X4 X5 was constructed in the library, in which X1−X5 represents either Ala, Asp, Glu, Phe, Gly, His, Ile, Lys, Leu, Met, Asn, Pro, Gln, Arg, Ser, Thr, Val, Trp, and Tyr residues. During the synthesis of OBOC library, solid support beads were mixed and split equally in each cycle, then different amino acids were added, separately, the process was repeated four times. The synthesis of peptides was used anhydrous DMF as solvent. The Fmoc group was removed by 20% (v/v) piperidine in DMF and the deprotection time was 10 min twice. During the coupling step, the HBTU (4 mM) and Fmoc-amino acid (4 mM) were dissolved in DMF containing NMM (0.4 mM). The coupling time was 50 min. Qualitative Fmoc deprotection and coupling were confirmed by ninhydrin test. All the above experiments were carried out in the solid phase peptide synthesis vessels with sieves in it. […]

[2] = Self-assembly of resynthesized soluble pentapeptides; assay type: physicochemical; details: self-assembly under aqueous environment
From the text: as §1
To estimate the propensity of the identified peptides to self-assemble, the critical micelle concentrations (CMC) of the eight positive peptides and four negative peptides were determined, and the results are shown in Table 1 and Supplementary Figs. 13, 14. The CMC of all the eight positive peptides were detectable and found to range between 8.4 and 14.8 μM, indicating the propensity for these peptides to self-assemble under aqueous environment. […] Hydrophobicity of peptides can be predicted by the value of GRAVY[28] with more negative value for more hydrophilic peptides. Of the four negative assembling peptides, two have a negative GRAVY value. […] Experimental testing, such as the screening strategy described in this work, is needed. This is because multiple factors, including hydrophobicity, hydrogen-bonding, electrostatic interactions, and positions of each residue within the peptides, all contribute to the assembling and final morphology of the self-assembled nano-structure. […]

HeLa cells = test: CCK-8 cell viability assay; assay type: cell-based; details: incubation 24 and 72 h, n=3
Protocol: Finally, we examined the biological effects and cellular distribution of the eight self-assembling peptides on HeLa cells. […] In order to observe the nanomaterials under fluorescent microscopy, each peptide preparation was spiked with 3% of the same peptide N-terminally labeled with FITC, and then added to HeLa cells at a final concentration of 40 μM. […] After 4 h of incubation with the peptide assemblies, the cells were observed under a fluorescent microscope (Figs. 4c, d and Supplementary 22). […] It is important to note that LDFPI nanoparticle was small (8 nm diameter) even after 4 h incubation. Its small size may in part explain its ability to pass through the nuclear pore complexes[32],[33]. […] To evaluate the cell uptake mechanism of peptide assemblies (YFTEF, ISDNL, and FGFDP) into the cytoplasm, we treated the cells at 4 °C or with various endocytosis inhibitors (Supplementary Fig. 23).
TentaGel S Resin was purchased from Rapp Polymere (Germany, loading 0.31 mmol/g). 9-Fluorenylmethoxycarbonyl (Fmoc)-protected amino acids, 2-(1H-benzotriazole-1-yl)-1,1,3,3- tetramethyluronium hexafluoro-phosphate (HBTU), and Wang resin were obtained from GL Biochem (China). Trifluoroacetic acid (TFA), fluorescein isothiocyanate (FITC), N-methyl morpholine (NMM), piperidine, and N,N′-dimethylformamide (DMF) were all from Beijing Chemical Plant (China). 1,2-Ethanedithiol (EDT) was purchased from Alfa Aesar (USA). Dimethyl sulfoxide (DMSO) was purchased from Aldrich Chemical Co. and used without further purification. Cyanogen bromide (CNBr) was from J&K Chemical (China). The HeLa cell lines were received from the Cell Culture Center of the Institute of Basic Medical Sciences, Chinese Academy of Medical Sciences (Beijing, China). Cell culture medium and fetal bovine serum were from WisentInc (Multicell, WisentInc, St. Bruno. The cell counting kit-8 assay (CCK-8) (Beyotime Institute of Biotechnology, China) was used. Hela cells were maintained Dulbecco’s modified eagle’s medium (DMEM) with 10% fetal bovine serum and 1% penicillin. All cells were cultured in a humidified atmosphere containing 5% CO2 at 37 °C.
Supplementary Figure 21 . a-h. CCK-8 cell viability assay for 8 pentapeptides (FTISD, ITSVV, YFTEF, ISDNL , LDFPI, FAGFT,
FGFDP, FFVDF) after incubation with HeLa cells for 24 and 72 h.
Standard Deviatio n (n=3).
(1 picture or pasted object on this page, not shown here)

Row | Substance | Fluorescence (beads) [1] | Assembly [2] | Cell toxicity (CCK-8 cell viability) (HeLa cells)
1 | YFTEF [self-assembling pentapeptide identified from OBOC library] | On | Yes | No cell toxicity was observed
2 | ISDNL [self-assembling pentapeptide identified from OBOC library] | On | Yes | No cell toxicity was observed
3 | LDFPI [self-assembling pentapeptide identified from OBOC library] | On | Yes | No cell toxicity was observed
4 | FAGFT [self-assembling pentapeptide identified from OBOC library] | On | Yes | No cell toxicity was observed
5 | FFVDF [self-assembling pentapeptide identified from OBOC library, forms nanofibers] | On | Yes | No cell toxicity was observed
6 | FTISD [self-assembling pentapeptide identified from OBOC library] | On | Yes | No cell toxicity was observed
7 | FGFDP [self-assembling pentapeptide identified from OBOC library] | On | Yes | No cell toxicity was observed
8 | ITSVV [self-assembling pentapeptide identified from OBOC library] | On | Yes | No cell toxicity was observed
